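Each compound was tested at five concentrations against cells in 96-well plates for 48 hours. Definition used: TGI = concentration required for complete inhibition of growth.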
System: SN12K1 renal
Test: inhibition of tumour cell growth, NCI panel, 48 h

Structure (SMILES)	TGI [µM]
O=C(Cn1ccnc1[N+](=O)[O-])N(CCO)CCO	> 1250
COC1/C=C/O[C@@]2(C)Oc3c(C)c(O)c4c(O)c(cc(O)c4c3C2=O)NC(=O)/C(C)=C\C=C\[C@H](C)C(O)[C@@H](C)[C@@H](O)[C@@H](C)[C@H](OC(C)=O)[C@@H]1C (some centres not stated)	33.5
